Structures are written as SMILES.

In the case of `COC(=O)c1nc(-c2c(C)noc2C)cc(N)c1Cl` [Compound 100, Methyl 4-amino-3-chloro-6-(3,5-dimethyl-4-isoxazolyl)pyridine-2-carboxylate], the melting point – broadly, the temperature of the solid-liquid transition – came out at 143 °C.

As to `COC(=O)c1nc(-c2ccsc2)cc(NC(C)=O)c1Cl` [Compound 101, Methyl 4-acetamido-3-chloro-6-(3-thienyl)pyridine-2-carboxylate], the melting point worked out at 133 °C.

`COC(=O)c1nc(-c2cccnc2)cc(N)c1Cl` [Compound 102, Methyl 4-amino-3-chloro-6-(3-pyridyl)pyridine-2-carboxylate] displayed a melting point of 144 to 146 °C.

Take `COC(=O)c1nc(-c2nccs2)cc(NC(C)=O)c1Cl` [Compound 103, Methyl 4-acetamido-3-chloro-6-(2-thiazolyl)pyridine-2-carboxylate]: the melting point is 187 to 188 °C.

In turn, `COC(=O)c1nc(-c2ccco2)c(Cl)c(N)c1Cl` [Compound 104, Methyl 4-amino-3,5-dichloro-6-(2-furanyl)pyridine-2-carboxylate] displayed a melting point of 116 to 117 °C.

For `COC(=O)c1nc(-c2cccs2)c(Cl)c(N)c1Cl` [Compound 105, Methyl 4-amino-3,5-dichloro-6-(2-thienyl)pyridine-2-carboxylate], the melting point came to 132 °C.

Regarding `COC(=O)c1nc(-c2cccs2)cc(N)c1Cl` [Compound 106, Methyl 4-amino-3-chloro-6-(2-thienyl)pyridine-2-carboxylate], the melting point was 138 to 139 °C.

Regarding `COC(=O)c1nc(-c2ccnc(OC)c2)cc(N)c1Cl` [Compound 107, Methyl 4-amino-3-chloro-6-(6-methoxy-4-pyridinyl)pyridine-2-carboxylate], the melting point is 185 to 187 °C.

On to `COC(=O)c1nc(-c2ccc(O)nc2)cc(N)c1Cl` [Compound 108, Methyl 4-amino-3-chloro-6-(6-hydroxy-3-pyridinyl)pyridine-2-carboxylate], for which the melting point is 251 to 252 °C.

`COC(=O)c1nc(-c2ccccn2)cc(N)c1Cl` [Compound 109, Methyl 4-amino-3-chloro-6-(2-pyridinyl)pyridine-2-carboxylate]: the melting point was 142 to 145 °C.

For the compound `COC(=O)c1nc(-c2ccco2)cc(N)c1Cl` [Compound 110, Methyl 4-amino-3-chloro-6-(2-furanyl)pyridine-2-carboxylate], the melting point was 117 °C.

Consider `COC(=O)c1nc(-c2nccs2)c(F)c(N)c1Cl` [Compound 113, Methyl 4-amino-3-chloro-5-fluoro-6-(2-thiazolyl)pyridine-2-carboxylate], for which the melting point lay within 185 to 187 °C.

Turning to `COC(=O)c1nc(-c2cncnc2)cc(NC(C)=O)c1Cl` [Compound 117, Methyl 4-acetamido-3-chloro-6-(5-pyrimidinyl)pyridine-2-carboxylate], the melting point fell in the range of 178 to 185 °C.

`COC(=O)c1nc(-c2ccsc2)cc(N)c1Cl` [Compound 122, Methyl 4-amino-3-chloro-6-(3-thienyl)pyridine-2-carboxylate] came in with a melting point of 129 °C.

In turn, `COC(=O)c1nc(-c2nccs2)cc(N)c1Cl` [Compound 123, Methyl 4-amino-3-chloro-6-(2-thiazolyl)pyridine-2-carboxylate] had a melting point of 195 to 197 °C.

In turn, `COC(=O)c1nc(-c2cnn(C)c2)cc(N)c1Cl` [Compound 124, Methyl 4-amino-3-chloro-6-(1-methyl-1H-pyrazol-4-yl)pyridine-2-carboxylate] yielded a melting point of 174 to 176 °C.

As for `COC(=O)c1nc(-c2cc3ccccc3s2)cc(N)c1Cl` [Compound 125, Methyl 4-amino-3-chloro-6-(2-benzothienyl)pyridine-2-carboxylate], the melting point was 177 to 178 °C.

Take `COC(=O)c1nc(-c2cncnc2)cc(N)c1Cl` [Compound 126, Methyl 4-amino-3-chloro-6-(5-pyrimidinyl)pyridine-2-carboxylate]: the melting point came to 195 °C.

Consider `Nc1c(Cl)c(C(=O)O)nc(-c2ccccc2)c1Cl` [Compound 133, 4-Amino-3,5-dichloro-6-(phenyl)pyridine-2-carboxylic acid], for which the melting point stood at 135 °C.

With `COc1ccc(-c2nc(C(=O)O)c(Cl)c(N)c2Cl)cc1` [Compound 134, 4-Amino-3,5-dichloro-6-(4-methoxyphenyl)pyridine-2-carboxylic acid], the melting point is 139 to 140 °C (dec.).

Take `Nc1cc(-c2ccccc2)nc(C(=O)O)c1Cl` [Compound 135, 4-Amino-3-chloro-6-(phenyl)pyridine-2-carboxylic acid]: the melting point was 180 to 181 °C (dec.).

Regarding `Nc1cc(-c2ccccc2Cl)nc(C(=O)O)c1Cl` [Compound 140, 4-Amino-3-chloro-6-(2-chlorophenyl)pyridine-2-carboxylic acid], the melting point fell in the range of 196 to 197 °C.

As for `Nc1cc(-c2ccccc2F)nc(C(=O)O)c1Cl` [Compound 142, 4-Amino-3-chloro-6-(2-fluorophenyl)pyridine-2-carboxylic acid], the melting point lay within 121 to 122 °C.

`CC(=O)c1ccc(-c2cc(N)c(Cl)c(C(=O)O)n2)cc1` [Compound 144, 4-Amino-3-chloro-6-(4-acetylphenyl)pyridine-2-carboxylic acid] had a melting point of 177 to 178 °C.

For `Nc1cc(-c2ccc(F)cc2F)nc(C(=O)O)c1Cl` [Compound 145, 4-Amino-3-chloro-6-(2,4-difluorophenyl)pyridine-2-carboxylic acid], the melting point is 206 °C (dec.).

Take `CC(C)c1ccc(-c2cc(N)c(Cl)c(C(=O)O)n2)cc1` [Compound 147, 4-Amino-3-chloro-6-(4-isopropylphenyl)pyridine-2-carboxylic acid]: the melting point lay in the range of 142 to 143 °C.

With `Nc1cc(-c2ccc(F)cc2)nc(C(=O)O)c1Cl` [Compound 156, 4-Amino-3-chloro-6-(4-fluorophenyl)pyridine-2-carboxylic acid], the melting point lay in the range of 170 to 171 °C.

Regarding `Nc1cc(-c2cccc(C(F)(F)F)c2)nc(C(=O)O)c1Cl` [Compound 157, 4-Amino-3-chloro-6-[3-(trifluoromethyl)phenyl]pyridine-2-carboxylic acid], the melting point was in the range of 175 to 176 °C.

Turning to `Nc1cc(-c2ccc(CO)cc2)nc(C(=O)O)c1Cl` [Compound 159, 4-Amino-3-chloro-6-(4-hydroxymethylphenyl)pyridine-2-carboxylic acid], the melting point was in the range of 181 to 182 °C.

Compound `Nc1cc(-c2ccc(CF)cc2)nc(C(=O)O)c1Cl` [Compound 160, 4-Amino-3-chloro-6-[4-(fluoromethyl)phenyl]pyridine-2-carboxylic acid] returned a melting point of 156 to 157 °C.

`Cc1ccc(-c2cc(N)c(Cl)c(C(=O)O)n2)cc1Cl` [Compound 164, 4-Amino-3-chloro-6-(3-chloro-4-methylphenyl)pyridine-2-carboxylic acid] displayed a melting point of 188 °C.

In the case of `Cc1ccccc1-c1cc(N)c(Cl)c(C(=O)O)n1` [Compound 165, 4-Amino-3-chloro-6-(2-methylphenyl)pyridine-2-carboxylic acid], the melting point is 188 to 189 °C.

`Nc1cc(-c2cc(F)cc(F)c2)nc(C(=O)O)c1Cl` [Compound 167, 4-Amino-3-chloro-6-(3,5-difluorophenyl)pyridine-2-carboxylic acid] registered a melting point of 182 to 183 °C.

Source of the values: patent US6784137B2, “6-aryl-4-aminopicolinates and their use as herbicides” (Dow AgroSciences LLC, priority 2001, dated 2004).
